# Source: patent US20090105217A1, “2-PHENYL-5-AMINO-1,3,4-OXADIAZOLES AND THEIR USE AS NICOTINIC ACETYLCHOLINE RECEPTOR LIGANDS” (priority 2007, published 2009)
# Biological target: T1, human α7 nAChR (Homo sapiens, UniProt P36544)
# T1 construct: host or cells: GH4C1 cells (pituitary tumor, immortalized cell line)
# Test: α7 nAChR FLIPR (Fluorometric Imaging Plate Reader) Ca2+ assay, agonist EC50
# Type: cell-based
# Details: GH4C1 cells stably transfected with human α7 nAChR; Fluo-4 Ca2+ fluorescence; Examples 194 to 205 tested as the HCl salt; read-out: pEC50 value (negative logarithm of the agonist EC50) (converted)
# Protocol: α7 nAChR FLIPR® (Fluorometric Imaging Plate Reader) Assay
# Function of the heterologous expressed α7 nAChR was assessed by a FLIPR-Ca^2+ assay. Since nAChRs are non-selective cation channels with high permeability to Ca^2+, these studies were carried out by measuring changes of intracellular Ca^2+ concentration using the Ca^2+-chelating fluorescent dye Fluo-4 and FLIPR® (Fluorometric Imaging Plate Reader) technology.
# GH4C1cells (pituitary tumor, immortalized cell line) stably transfected with human α7 nAChR (Biocat ID 96986), were thawed, suspended in growth medium (Ham's Nutrient Mixture F10—Ham's F10, Invitrogen 31550-023, 15% Horse Serum heat inactivated—Invitrogen 26050-047, 2.5% Foetal Bovine Serum—FBS, Gibco 10500-064, 200 μg/ml Hygromycin B—Invitrogen, 10687-010, 10 mg/L Phenol Red—Sigma, P 0290, 1 mM Glutamine—Invitrogen, 25030-024) and plated in 500 cm^2 Triple Flask.
# Cells were then incubated at 30° C., 5% CO2 for 72 hours.
# On the day of the experiment, cells were washed twice with Assay Buffer (AB) (145 mM NaCl, 5 mM KCl, 1 mM MgCl2, 2 mM CaCl2, 20 mM HEPES, 5.5 mM Glucose pH=7.3) containing 2.5 mM Probenecid. Changes in the intracellular Ca^2+ content of stably transfected cells were measured using the Ca^2+ chelating dye Fluo-4 (Tef Labs 0152) in conjunction with a FLIPR® (Molecular Devices). The cell permeant dye Fluo-4 was prepared to a concentration of 1 mM in 100% DMSO and 10% Pluronic acid. The dye was then diluted with AB to a final concentration of 2 μM and placed on the cells. After 45-60 minutes dye loading incubation at 37° C., the unincorporated dye was removed from the cells by washing (80 μL, 3 times) with AB, and a final volume of 30 μL/well of AB was left in each well.
# Plates containing test compounds (dissolved in 100% DMSO at 2 mM and serially diluted with DMSO) were copied into “daughter” plates (1 μL/well dispensation). Just prior to starting the assay, the “daughter” plate was diluted with 50 μL/well of AB.
# The plates were then placed in the FLIPR®, and cell fluorescence was determined before drug addition (30 seconds) and monitored (excitation 488 nm, emission 510-580 nm) immediately following exposure to compounds. Maximum fluorescence values were recorded and fitted for agonist EC50 calculations.
# The results are expressed as pEC50 values. A pEC50 is the negative logarithm of the agonist EC50 calculation as determined in the α7 nAChR FLIPR® assay. […] Variations in pEC50 may arise between tests.
# T1 sequence (P36544 23-502): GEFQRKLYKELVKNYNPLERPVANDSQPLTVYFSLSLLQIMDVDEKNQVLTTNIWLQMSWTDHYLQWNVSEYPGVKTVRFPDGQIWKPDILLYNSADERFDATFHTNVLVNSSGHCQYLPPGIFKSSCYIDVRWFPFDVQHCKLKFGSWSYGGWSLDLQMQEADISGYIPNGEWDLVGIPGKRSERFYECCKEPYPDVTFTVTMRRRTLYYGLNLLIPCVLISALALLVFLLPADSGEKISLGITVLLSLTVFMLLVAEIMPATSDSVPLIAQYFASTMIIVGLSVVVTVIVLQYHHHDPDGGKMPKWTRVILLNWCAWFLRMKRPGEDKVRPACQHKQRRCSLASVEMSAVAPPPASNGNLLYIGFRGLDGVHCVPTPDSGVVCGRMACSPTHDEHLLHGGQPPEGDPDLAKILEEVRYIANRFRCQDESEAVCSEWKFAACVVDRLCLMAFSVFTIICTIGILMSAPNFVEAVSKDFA
row,EC50 [µM],Compound
1,≤ 1,"O=C(Nc1ccc(-c2nnc(NCCCN3CCCC3)o2)c(C(F)(F)F)c1)c1ccccc1F [Example 84, 2-fluoro-N-[4-(5-{[3-(1-pyrrolidinyl)propyl]amino}-1,3,4-oxadiazol-2-yl)-3-(trifluoromethyl)phenyl]benzamide]"
2,≤ 0.1,"O=C(Nc1ccc(-c2nnc(NCCCCN3CCCC3)o2)c(C(F)(F)F)c1)c1ccccc1F [Example 85, 2-fluoro-N-[4-(5-{[4-(1-pyrrolidinyl)butyl]amino}-1,3,4-oxadiazol-2-yl)-3-(trifluoromethyl)phenyl]benzamide]"
3,≤ 1,"O=C(Nc1ccc(-c2nnc(NCCCN3CCOCC3)o2)c(C(F)(F)F)c1)c1ccccc1F [Example 86, 2-fluoro-N-[4-(5-{[3-(4-morpholinyl)propyl]amino}-1,3,4-oxadiazol-2-yl)-3-(trifluoromethyl)phenyl]benzamide]"
4,≤ 1,"O=C(Nc1ccc(-c2nnc(NCCCCN3CCOCC3)o2)c(C(F)(F)F)c1)c1ccccc1F [Example 87, 2-fluoro-N-[4-(5-{[4-(4-morpholinyl)butyl]amino}-1,3,4-oxadiazol-2-yl)-3-(trifluoromethyl)phenyl]benzamide]"
5,≤ 1,"CCN(CC)CCCNc1nnc(-c2ccc(NC(=O)c3ccccc3F)cc2C(F)(F)F)o1 [Example 88, N-[4-(5-{[3-(diethylamino)propyl]amino}-1,3,4-oxadiazol-2-yl)-3-(trifluoromethyl)phenyl]-2-fluorobenzamide]"
6,≤ 0.1,"CCN(CC)CCCCNc1nnc(-c2ccc(NC(=O)c3ccccc3F)cc2C(F)(F)F)o1 [Example 89, N-[4-(5-{[4-(diethylamino)butyl]amino}-1,3,4-oxadiazol-2-yl)-3-(trifluoromethyl)phenyl]-2-fluorobenzamide]"
7,≤ 0.1,"O=C(Nc1ccc(-c2nnc(NCCCCN3CCCCC3)o2)c(C(F)(F)F)c1)c1ccccc1F [Example 90, 2-fluoro-N-[4-(5-{[4-(1-piperidinyl)butyl]amino]-1,3,4-oxadiazol-2-yl)-3-(trifluoromethyl)phenyl]benzamide]"
8,≤ 1,"CCN(CC)CCCNc1nnc(-c2ccc(NC(=O)c3ccccc3)cc2C(F)(F)F)o1 [Example 95, N-[4-(5-{[3-(diethylamino)propyl]amino}-1,3,4-oxadiazol-2-yl)-3-(trifluoromethyl)phenyl]benzamide]"
9,≤ 0.1,"CCN(CC)CCCCNc1nnc(-c2ccc(NC(=O)c3ccccc3)cc2C(F)(F)F)o1 [Example 96, N-[4-(5-{[4-(diethylamino)butyl]amino}-1,3,4-oxadiazol-2-yl)-3-(trifluoromethyl)phenyl]benzamide]"
10,≤ 1,"CCN(CC)CCCNc1nnc(-c2ccc(NC(=O)c3ccccc3)cc2Cl)o1 [Example 103, N-[3-chloro-4-(5-{[3-(diethylamino)propyl]amino}-1,3,4-oxadiazol-2-yl)phenyl]benzamide]"
11,≤ 1,"CCN(CC)CCCNc1nnc(-c2ccc(NC(=O)c3ccccc3)cc2F)o1 [Example 111, N-[4-(5-{[3-(diethylamino)propyl]amino}-1,3,4-oxadiazol-2-yl)-3-fluorophenyl]benzamide]"
12,≤ 0.1,"CCN(CC)CCCCNc1nnc(-c2ccc(NC(=O)c3ccccc3)cc2F)o1 [Example 112, N-[4-(5-{[4-(diethylamino)butyl]amino}-1,3,4-oxadiazol-2-yl)-3-fluorophenyl]benzamide]"

# Second part, the compound before the results:
row,Compound,EC50 [µM]
1,"CCN(CC)CCCCNc1nnc(-c2ccc(NC(=O)C3CCCCC3)cc2OC)o1 [Example 82, N-[4-(5-{[4-(diethylamino)butyl]amino}-1,3,4-oxadiazol-2-yl)-3-(methyloxy)phenyl]cyclohexanecarboxamide]",≤ 1
2,"COc1cc(NC(=O)C2CCCCC2)ccc1-c1nnc(NCCCCN2CCCCC2)o1 [Example 83, N-[3-(methyloxy)-4-(5-{[4-(1-piperidinyl)butyl]amino}-1,3,4-oxadiazol-2-yl)phenyl]cyclohexanecarboxamide]",≤ 0.1
3,"O=C(Nc1ccc(-c2nnc(NCCCN3CCCC3)o2)c(C(F)(F)F)c1)c1ccccc1 [Example 91, N-[4-(5-{[3-(1-pyrrolidinyl)propyl]amino}-1,3,4-oxadiazol-2-yl)-3-(trifluoromethyl)phenyl]benzamide]",≤ 1
4,"O=C(Nc1ccc(-c2nnc(NCCCCN3CCCC3)o2)c(C(F)(F)F)c1)c1ccccc1 [Example 92, N-[4-(5-{[4-(1-pyrrolidinyl)butyl]amino}-1,3,4-oxadiazol-2-yl)-3-(trifluoromethyl)phenyl]benzamide]",≤ 0.1
5,"O=C(Nc1ccc(-c2nnc(NCCCN3CCOCC3)o2)c(C(F)(F)F)c1)c1ccccc1 [Example 93, N-[4-(5-{[3-(4-morpholinyl)propyl]amino}-1,3,4-oxadiazol-2-yl)-3-(trifluoromethyl)phenyl]benzamide]",≤ 1
6,"O=C(Nc1ccc(-c2nnc(NCCCCN3CCOCC3)o2)c(C(F)(F)F)c1)c1ccccc1 [Example 94, N-[4-(5-{[4-(4-morpholinyl)butyl]amino}-1,3,4-oxadiazol-2-yl)-3-(trifluoromethyl)phenyl]benzamide]",≤ 0.1
7,"O=C(Nc1ccc(-c2nnc(NCCCN3CCCCC3)o2)c(C(F)(F)F)c1)c1ccccc1 [Example 97, N-[4-(5-{[3-(1-piperidinyl)propyl]amino}-1,3,4-oxadiazol-2-yl)-3-(trifluoromethyl)phenyl]benzamide]",≤ 1
8,"O=C(Nc1ccc(-c2nnc(NCCCCN3CCCCC3)o2)c(C(F)(F)F)c1)c1ccccc1 [Example 98, N-[4-(5-{[4-(1-piperidinyl)butyl]amino}-1,3,4-oxadiazol-2-yl)-3-(trifluoromethyl)phenyl]benzamide]",≤ 0.1
9,O=C(Nc1ccc(-c2nnc(NCCCN3CCCC3)o2)c(Cl)c1)c1ccccc1 [Example 99],≤ 1
10,"O=C(Nc1ccc(-c2nnc(NCCCCN3CCCC3)o2)c(Cl)c1)c1ccccc1 [Example 100, N-[3-chloro-4-(5-{[4-(1-pyrrolidinyl)butyl]amino}-1,3,4-oxadiazol-2-yl)phenyl]benzamide]",≤ 0.1
11,"O=C(Nc1ccc(-c2nnc(NCCCN3CCOCC3)o2)c(Cl)c1)c1ccccc1 [Example 101, N-[3-chloro-4-(5-{[3-(4-morpholinyl)propyl]amino}-1,3,4-oxadiazol-2-yl)phenyl]benzamide]",≤ 1
12,"O=C(Nc1ccc(-c2nnc(NCCCCN3CCOCC3)o2)c(Cl)c1)c1ccccc1 [Example 102, N-[3-chloro-4-(5-{[4-(4-morpholinyl)butyl]amino}-1,3,4-oxadiazol-2-yl)phenyl]benzamide]",≤ 0.1
13,"CCN(CC)CCCCNc1nnc(-c2ccc(NC(=O)c3ccccc3)cc2Cl)o1 [Example 104, N-[3-chloro-4-(5-{[4-(diethylamino)butyl]amino}-1,3,4-oxadiazol-2-yl)phenyl]benzamide]",≤ 0.1
14,"O=C(Nc1ccc(-c2nnc(NCCCN3CCCCC3)o2)c(Cl)c1)c1ccccc1 [Example 105, N-[3-chloro-4-(5-{[3-(1-piperidinyl)propyl]amino}-1,3,4-oxadiazol-2-yl)phenyl]benzamide]",≤ 1
15,"O=C(Nc1ccc(-c2nnc(NCCCCN3CCCCC3)o2)c(Cl)c1)c1ccccc1 [Example 106, N-[3-chloro-4-(5-{[4-(1-piperidinyl)butyl]amino}-1,3,4-oxadiazol-2-yl)phenyl]benzamide]",≤ 0.1
16,"O=C(Nc1ccc(-c2nnc(NCCCN3CCCC3)o2)c(F)c1)c1ccccc1 [Example 107, N-[3-fluoro-4-(5-{[3-(1-pyrrolidinyl)propyl]-amino}-1,3,4-oxadiazol-2-yl)phenyl]benzamide]",≤ 1
17,"O=C(Nc1ccc(-c2nnc(NCCCCN3CCCC3)o2)c(F)c1)c1ccccc1 [Example 108, N-[3-fluoro-4-(5-{[4-(1-pyrrolidinyl)butyl]amino}-1,3,4-oxadiazol-2-yl)phenyl]benzamide]",≤ 0.1
18,"O=C(Nc1ccc(-c2nnc(NCCCN3CCCCC3)o2)c(F)c1)c1ccccc1 [Example 113, N-[3-fluoro-4-(5-{[3-(1-piperidinyl)propyl]amino}-1,3,4-oxadiazol-2-yl)phenyl]benzamide]",≤ 1
19,"O=C(Nc1ccc(-c2nnc(NCCCCN3CCCCC3)o2)c(F)c1)c1ccccc1 [Example 114, N-[3-fluoro-4-(5-{[4-(1-piperidinyl)butyl]amino}-1,3,4-oxadiazol-2-yl)phenyl]benzamide]",≤ 0.1
